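Cultured in 96-well plates, cells were exposed to test compound for 48 hours across five concentrations. GI50 = concentration required for 50% inhibition of growth.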 Calls of active or inactive are those of the source. No stated cut-off is given here; in the data, active = GI50 up to about 1.1 µM and inactive = higher.
Columns and labels:
Assay in all cases: NCI anticancer screen, dose series, 48 h
[1] = test system: SF-539
[2] = test system: BT-549
[3] = test system: M14
[4] = test system: OVCAR-3
[5] = test system: HOP-92
[6] = test system: UACC-62
[7] = test system: 786-0
[8] = test system: PC-3
[9] = test system: A549
[10] = test system: U-251
[11] = test system: NCI-H460
[12] = test system: NCI-H23
[13] = test system: SK-MEL-5
[14] = test system: DU-145
[15] = test system: MDA-MB-435
[16] = test system: HCT-116
[17] = test system: SNB-75
[18] = test system: RXF 393
[19] = test system: A498
[20] = test system: NCI-H226

| SMILES | GI50 [1] | GI50 [2] | GI50 [3] | GI50 [4] | GI50 [5] | GI50 [6] | GI50 [7] | GI50 [8] | GI50 [9] | GI50 [10] | GI50 [11] | GI50 [12] | GI50 [13] | GI50 [14] | GI50 [15] | GI50 [16] | GI50 [17] | GI50 [18] | GI50 [19] | GI50 [20] |
| --- | --- | --- | --- | --- | --- | --- | --- | --- | --- | --- | --- | --- | --- | --- | --- | --- | --- | --- | --- | --- |
| O=C1/C(=C/c2ccc(OC(=O)c3ccccc3)cc2)CCC/C1=C\c1ccc(OC(=O)c2ccccc2)cc1 | > 100 µM (inactive) | > 100 µM (inactive) | > 100 µM (inactive) | > 100 µM (inactive) | > 100 µM (inactive) | > 100 µM (inactive) | > 100 µM (inactive) | > 100 µM (inactive) | > 100 µM (inactive) | > 100 µM (inactive) | > 100 µM (inactive) | > 100 µM (inactive) | > 100 µM (inactive) | > 100 µM (inactive) | > 100 µM (inactive) | > 100 µM (inactive) | 93.3 µM (inactive) |  |  |  |
| Cc1cc2nc3c(C)c4ccccc4c(C)n3c2cc1C | 1.56 µM (inactive) | 6.07 µM (inactive) | 2.61 µM (inactive) | 1.95 µM (inactive) | 2.09 µM (inactive) | 4.14 µM (inactive) | 1.24 µM (inactive) | 2.96 µM (inactive) | 3.9 µM (inactive) | 3.33 µM (inactive) | 1.79 µM (inactive) | 2.67 µM (inactive) | 2.26 µM (inactive) | 3.3 µM (inactive) | 3.02 µM (inactive) | 1.01 µM (active) | 4.97 µM (inactive) | 2.84 µM (inactive) |  |  |
| O=C(Nc1ccc(F)cc1)c1cc2ccc(O)cc2o/c1=N\c1ccccc1F | 42.7 µM (inactive) | 14.8 µM (inactive) |  | 27.9 µM (inactive) |  | 22.6 µM (inactive) | 24.4 µM (inactive) | 32.3 µM (inactive) |  | 19.9 µM (inactive) | 18.8 µM (inactive) | 1.62 µM (inactive) | 10.7 µM (inactive) | 34.4 µM (inactive) | 27.9 µM (inactive) | 24.8 µM (inactive) |  |  | 37.6 µM (inactive) |  |
| CC(NC(=O)c1c(O)[nH]c(=S)[nH]c1=O)c1ccc([N+](=O)[O-])cc1 (stereo not drawn) | 82.2 µM (inactive) | > 100 µM (inactive) | > 100 µM (inactive) | 36.1 µM (inactive) | 39.7 µM (inactive) | 77.3 µM (inactive) | 94.6 µM (inactive) | 40.7 µM (inactive) | > 100 µM (inactive) | 32.5 µM (inactive) | > 100 µM (inactive) | 88.1 µM (inactive) | > 100 µM (inactive) | 75.7 µM (inactive) | > 100 µM (inactive) | 61 µM (inactive) | 17.9 µM (inactive) | > 100 µM (inactive) |  | 70.1 µM (inactive) |
| O=C1C(Cl)C(c2cccc(Br)c2)N1c1c(O)c(Cl)cc(Br)c1Cl (stereo not drawn) | 15.6 µM (inactive) | 25.8 µM (inactive) | 13.9 µM (inactive) | 16.1 µM (inactive) | 6.93 µM (inactive) | 14.5 µM (inactive) | 23.4 µM (inactive) | 18 µM (inactive) | 17.3 µM (inactive) | 12.7 µM (inactive) | 14.1 µM (inactive) | 16.6 µM (inactive) | 14.2 µM (inactive) | 14.9 µM (inactive) | 15 µM (inactive) | 14.5 µM (inactive) |  | 10.9 µM (inactive) |  | 18.2 µM (inactive) |
| COC(=O)C(C)(Cc1ccc2c(c1)nnn2C(C)=O)NC(C)=O (stereo not drawn) |  | > 100 µM (inactive) | > 100 µM (inactive) | > 100 µM (inactive) | > 100 µM (inactive) | > 100 µM (inactive) | > 100 µM (inactive) | > 100 µM (inactive) | > 100 µM (inactive) |  | > 100 µM (inactive) | > 100 µM (inactive) | > 100 µM (inactive) | > 100 µM (inactive) | > 100 µM (inactive) | > 100 µM (inactive) | > 100 µM (inactive) | > 100 µM (inactive) |  | > 100 µM (inactive) |
